From patent publication US7812183B2, “Benzopyran derivatives as potassium channel openers” (Janssen Pharmaceutica NV, priority 2005, dated 2010)

Target: T1, KATP channels (Homo sapiens, UniProt O60706+Q14654)
T1 construct: TE671 human medulloblastoma cells were obtained from ATCC; host or cells: TE671 human medulloblastoma cells
Experiment: Potassium Channel Assay (FLIPR membrane potential, TE671 cells)
Assay type: cell-based
Details: TE671 human medulloblastoma cells, Membrane Potential Assay Dye, room temperature, hyperpolarization from KATP channel opening
Protocol: TE671 human medulloblastoma cells were obtained from ATCC and grown in Dulbecco's modified Eagle's medium (DMEM) supplemented with 10% fetal bovine serum, 100 U/ml penicillin and 100 U/ml streptomycine.
The day before testing, the cells were plated in black 96-well plates at 50K/well. On the day of testing, the growth media was removed, then 100 μl of FLIPR buffer (20 mM HEPES, 120 mM NaCl, 2 mM KCl, 2 mM CaCl2, 1 mM MgCl2, 5 mM Glucose) and 100 μl of Membrane Potential Assay Dye (Molecular Devices) dissolved in FLIPR buffer were added to each well. The cells were incubated at room temperature for 15 to 30 min.
The effect of test compounds on KATP channels were evaluated on a fluorometric imaging plate reader (FLIPR, Molecular Devices) at room temperature. After a baseline period, 50 μl of 5× stock solution of test compound prepared in FLIPR buffer was added and fluorescent change was monitored for 3 minutes. After this reading, glyburide, a KATP channel blocker, was added to a final concentration of 5 μM to check the specificity of the test compound as a KATP channel openers. Hyperpolarization resulting from KATP channel opening was observed as a decrease in fluorescent intensity.
Representative compounds of the present invention were tested according to the procedure described above, with results as listed in Table 7, below.

T1 sequence (O60706 1-1549 isoform O60706-2): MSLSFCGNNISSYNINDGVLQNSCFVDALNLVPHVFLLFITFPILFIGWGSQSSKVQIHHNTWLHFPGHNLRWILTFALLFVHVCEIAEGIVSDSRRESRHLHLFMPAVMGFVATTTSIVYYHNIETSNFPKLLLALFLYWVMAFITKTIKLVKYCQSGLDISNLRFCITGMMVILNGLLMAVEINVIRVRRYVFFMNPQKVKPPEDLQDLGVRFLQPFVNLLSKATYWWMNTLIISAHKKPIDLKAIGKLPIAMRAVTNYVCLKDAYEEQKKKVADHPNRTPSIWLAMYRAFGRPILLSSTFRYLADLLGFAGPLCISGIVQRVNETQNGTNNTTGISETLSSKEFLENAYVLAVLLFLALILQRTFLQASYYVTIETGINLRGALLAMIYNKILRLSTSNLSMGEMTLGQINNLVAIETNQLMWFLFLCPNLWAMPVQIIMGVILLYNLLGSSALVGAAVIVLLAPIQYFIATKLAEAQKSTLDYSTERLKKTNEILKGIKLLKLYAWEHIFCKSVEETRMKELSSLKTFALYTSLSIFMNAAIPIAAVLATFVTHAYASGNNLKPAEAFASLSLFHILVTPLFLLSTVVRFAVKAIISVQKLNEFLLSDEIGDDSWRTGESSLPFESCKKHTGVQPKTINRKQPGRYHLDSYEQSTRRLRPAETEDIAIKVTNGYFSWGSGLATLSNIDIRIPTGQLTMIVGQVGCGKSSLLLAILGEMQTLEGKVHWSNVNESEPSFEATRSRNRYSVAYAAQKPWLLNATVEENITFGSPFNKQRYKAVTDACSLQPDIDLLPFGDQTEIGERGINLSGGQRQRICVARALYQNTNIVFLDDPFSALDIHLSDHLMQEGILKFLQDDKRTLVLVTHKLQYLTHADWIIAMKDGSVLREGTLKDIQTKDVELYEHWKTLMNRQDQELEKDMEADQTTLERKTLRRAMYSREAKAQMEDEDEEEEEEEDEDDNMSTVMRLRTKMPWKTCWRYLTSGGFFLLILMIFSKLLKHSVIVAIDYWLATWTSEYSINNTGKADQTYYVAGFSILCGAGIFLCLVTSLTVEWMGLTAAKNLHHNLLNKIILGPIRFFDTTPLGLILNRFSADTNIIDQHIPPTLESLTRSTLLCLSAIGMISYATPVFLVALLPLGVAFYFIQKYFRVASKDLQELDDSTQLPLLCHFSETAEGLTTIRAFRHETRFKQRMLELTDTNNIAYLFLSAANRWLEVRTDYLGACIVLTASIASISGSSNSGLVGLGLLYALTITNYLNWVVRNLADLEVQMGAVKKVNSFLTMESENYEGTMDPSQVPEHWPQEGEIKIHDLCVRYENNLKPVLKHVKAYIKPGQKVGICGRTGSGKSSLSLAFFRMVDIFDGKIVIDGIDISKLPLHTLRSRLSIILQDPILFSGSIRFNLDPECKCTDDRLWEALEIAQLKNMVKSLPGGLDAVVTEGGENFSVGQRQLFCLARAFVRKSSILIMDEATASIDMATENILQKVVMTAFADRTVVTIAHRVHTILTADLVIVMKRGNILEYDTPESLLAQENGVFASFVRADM
T1 sequence (Q14654 whole entry): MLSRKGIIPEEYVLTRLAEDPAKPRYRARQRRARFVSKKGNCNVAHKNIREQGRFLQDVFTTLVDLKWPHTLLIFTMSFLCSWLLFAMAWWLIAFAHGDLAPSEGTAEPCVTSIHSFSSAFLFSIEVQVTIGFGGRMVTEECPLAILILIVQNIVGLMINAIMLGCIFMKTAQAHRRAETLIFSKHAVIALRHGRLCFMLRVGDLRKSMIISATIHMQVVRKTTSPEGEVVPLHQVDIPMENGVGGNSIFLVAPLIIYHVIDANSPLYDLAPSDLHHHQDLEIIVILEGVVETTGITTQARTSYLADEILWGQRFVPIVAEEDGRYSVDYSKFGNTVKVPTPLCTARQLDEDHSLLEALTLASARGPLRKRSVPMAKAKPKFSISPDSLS

Structure (SMILES)	EC50
CCN(CC)S(=O)(=O)c1ccc2c(c1)[C@@H](Nc1noc3c(Cl)cccc13)[C@H](O)C(C)(C)O2 [Compound 82, 4R-(7-Chloro-benzo[d]isoxazol-3-ylamino)-3S-hydroxy-2,2-dimethyl-chroman-6-sulfonic acid diethylamide]	26.6 µM
Cc1cccc2c(=O)n([C@@H]3c4cc(C#N)ccc4OC(C)(C)[C@H]3O)oc12 [Compound 32, 3S-Hydroxy-2,2-dimethyl-4R-(7-methyl-3-oxo-3H-benzo[d]isoxazol-2-yl)-chroman-6-carbonitrile]	22.6 µM
CC1(C)Oc2ccc(C#N)cc2[C@@H](Sc2nc3cc(Cl)ccc3[nH]2)C1O (stereo in doubt) [Compound 29, (3S,4R)-4-(5-Chloro-1H-benzoimidazol-2-ylsulfanyl)-3-hydroxy-2,2-dimethyl-chroman-6-carbonitrile]	6.18 µM
CC1(C)Oc2ccc(C#N)cc2[C@@H](n2nccc2-c2ccc(Cl)cc2)[C@@H]1O [Compound 10, 4R-[5-(4-Chloro-phenyl)-pyrazol-1-yl]-3S-hydroxy-2,2-dimethyl-chroman-6-carbonitrile]	1.5 µM
CC1(C)Oc2ccc(C#N)cc2[C@@H](Sc2nc3cc(OC(F)F)ccc3[nH]2)[C@@H]1O (racemic) [Compound 16, 4-(5-Difluoromethoxy-1H-benzoimidazol-2-ylsulfanyl)-3-hydroxy-2,2-dimethyl-chroman-6-carbonitrile]	> 30 µM
CC1(C)Oc2ccc(S(=O)(=O)N3CCCCC3)cc2[C@@H](Nc2noc3ccc(Cl)cc23)[C@@H]1O [Compound 88, 4R-(5-Chloro-benzo[d]isoxazol-3-ylamino)-2,2-dimethyl-6-(piperidine-1-sulfonyl)-chroman-3S-ol]	> 30 µM
CC1(C)Oc2ccc(C#N)cc2[C@@H](n2oc3cc(Cl)ccc3c2=O)[C@@H]1O [Compound 117, 4R-(6-Chloro-3-oxo-3H-benzo[d]isoxazol-2-yl)-3S-hydroxy-2,2-dimethyl-chroman-6-carbonitrile]	> 30 µM
CC1(C)Oc2ccc(C#N)cc2[C@@H](Nc2nc(=O)c3ccccc3[nH]2)[C@@H]1O (racemic) [Compound 118, 3-Hydroxy-2,2-dimethyl-4-(4-oxo-1,4-dihydro-quinazolin-2-ylamino)-chroman-6-carbonitrile]	7.8 µM
CC1(C)Oc2ccc(S(=O)(=O)c3cccc(F)c3)cc2[C@@H](n2oc3cc(Cl)ccc3c2=O)[C@@H]1O [Compound 100, 4R-6-Chloro-2-[6-(3-fluoro-benzenesulfonyl)-3S-hydroxy-2,2-dimethyl-chroman-4-yl]-R-benzo[d]isoxazol-3-one]	1.95 µM
CC1(C)Oc2ccc(S(=O)(=O)N3CCCCC3)cc2[C@@H](n2oc3cc(Cl)ccc3c2=O)[C@@H]1O [Compound 84, 6-Chloro-2-[3S-hydroxy-2,2-dimethyl-6-(piperidine-1-sulfonyl)-chroman-4-yl]-R-benzo[d]isoxazol-3-one]	1.08 µM
CC1(C)Oc2ccc(C#N)cc2[C@@H](n2ccnc2-c2ccccc2)[C@@H]1O (racemic) [Compound 47, 3-Hydroxy-2,2-dimethyl-4-(2-phenyl-imidazol-1-yl)-chroman-6-carbonitrile]	> 30 µM
CCN(CC)S(=O)(=O)c1ccc2c(c1)[C@@H](Oc1noc3ccc(Cl)cc13)[C@H](O)C(C)(C)O2 [Compound 85, 4R-(5-Chloro-benzo[d]isoxazol-3-yloxy)-3S-hydroxy-2,2-dimethyl-chroman-6-sulfonic acid diethylamide]	> 30 µM
CC1(C)Oc2ccc(C#N)cc2[C@@H](S(=O)(=O)c2ncc[nH]2)C1O (stereo in doubt) [Compound 71, (3S,4R)-3-Hydroxy-4-(1H-imidazole-2-sulfonyl)-2,2-dimethyl-chroman-6-carbonitrile]	> 30 µM
CC1(C)Oc2ccc(Cl)cc2[C@@H](OC2=NN(c3ccccc3)CC2)[C@@H]1O (racemic) [Compound 59, 6-Chloro-2,2-dimethyl-4-(1-phenyl-4,5-dihydro-1H-pyrazol-3-yloxy)-chroman-3-ol]	16.6 µM
CC1(C)Oc2ccc(C#N)cc2[C@@H](Oc2ccc(-c3ccc(Cl)cc3)nn2)[C@@H]1O (racemic) [Compound 56, 4-[6-(4-Chloro-phenyl)-pyridazin-3-yloxy]-3-hydroxy-2,2-dimethyl-chroman-6-carbonitrile]	> 30 µM
CC1(C)Oc2ccc(S(=O)(=O)c3ccccc3)cc2[C@@H](Nc2noc3ccc(Cl)cc23)[C@@H]1O [Compound 74, 6-Benzenesulfonyl-4R-(5-chloro-benzo[d]isoxazol-3-ylamino)-2,2-dimethyl-chroman-3S-ol]	1.37 µM
CC1(C)Oc2ccc(C#N)cc2[C@@H](n2c(=O)ccn2-c2ccccc2)[C@@H]1O (racemic) [Compound 62, 3-Hydroxy-2,2-dimethyl-4-(5-oxo-2-phenyl-2,5-dihydro-pyrazol-1-yl)-chroman-6-carbonitrile]	13.5 µM
CC1(C)Oc2ccc(C#N)cc2[C@@H](SC2=NCCO2)[C@@H]1O (stereo in doubt) [Compound 68, 4-(4,5-Dihydro-oxazol-2-ylsulfanyl)-3-hydroxy-2,2-dimethyl-chroman-6-carbonitrile]	3.45 µM

Structure (SMILES)	EC50
CC1(C)Oc2ccc(C#N)cc2[C@@H](n2c(=O)ccn2-c2ccc(Cl)cc2)[C@@H]1O (racemic) [Compound 15, 4-[2-(4-Chloro-phenyl)-5-oxo-2,5-dihydro-pyrazol-1-yl]-3-hydroxy-2,2-dimethyl-chroman-6-carbonitrile]	5.93 µM
CC1(C)Oc2ccc(C#N)cc2[C@@H](Oc2nsc3ccccc23)[C@@H]1O (racemic) [Compound 20, 4-(Benzo[d]isothiazol-3-yloxy)-3-hydroxy-2,2-dimethyl-chroman-6-carbonitrile]	16.1 µM
CC1(C)Oc2ccc(C#N)cc2[C@@H](Oc2ccn(-c3ccccc3)n2)[C@@H]1O (racemic) [Compound 58, 3-Hydroxy-2,2-dimethyl-4-(1-phenyl-1H-pyrazol-3-yloxy)-chroman-6-carbonitrile]	2.62 µM
CC1(C)Oc2ccc(C#N)cc2[C@@H](NP(C)(=O)c2ccccc2)[C@@H]1O (some centres unmarked) [Compound 28]	18.6 µM
CC1(C)Oc2ccc(C#N)cc2[C@@H](NP(=O)(c2ccccc2)c2ccccc2)[C@@H]1O [Compound 65]	> 30 µM
CC1(C)Oc2ccc(S(=O)(=O)c3ccccc3)cc2[C@@H](n2oc3cc(Cl)ccc3c2=O)[C@@H]1O [Compound 78, 2-(6-Benzenesulfonyl-3S-hydroxy-2,2-dimethyl-chroman-4-yl)-6-chloro-4R-benzo[d]isoxazol-3-one]	0.1 µM
CC1(C)Oc2ccc(C#N)cc2[C@@H](n2cncc2-c2ccc(Cl)cc2)[C@@H]1O (racemic) [Compound 18, 4-[5-(4-Chloro-phenyl)-imidazol-1-yl]-3-hydroxy-2,2-dimethyl-chroman-6-carbonitrile]	7.45 µM
CC1(C)Oc2ccc(C#N)cc2[C@@H](n2nc(N)c3c(F)cccc32)[C@@H]1O [Compound 36, 4R-(3-Amino-4-fluoro-indazol-1-yl)-3S-hydroxy-2,2-dimethyl-chroman-6-carbonitrile]	16.2 µM
CC1(C)Oc2ccc(C(=O)c3ccccc3)cc2[C@@H](n2oc3cc(Cl)ccc3c2=O)[C@@H]1O [Compound 96, 2-(6-Benzoyl-3S-hydroxy-2,2-dimethyl-chroman-4-yl)-6-chloro-4R-benzo[d]isoxazol-3-one]	6.45 µM
CC1(C)Oc2ccc(C#N)cc2[C@@H](N2CCN(c3ccc([N+](=O)[O-])cc3)CC2)[C@@H]1O (racemic) [Compound 51, 3-Hydroxy-2,2-dimethyl-4-[4-(4-nitro-phenyl)-piperazin-1-yl]-chroman-6-carbonitrile]	> 30 µM
CCN(CC)C(=O)c1ccc2c(c1)[C@@H](Oc1noc3cc(Cl)ccc13)[C@H](O)C(C)(C)O2 [Compound 90, 4R-(6-Chloro-benzo[d]isoxazol-3-yloxy)-3S-hydroxy-2,2-dimethyl-chroman-6-carboxylic acid diethylamide]	> 30 µM
CC1(C)Oc2ccc(C#N)cc2[C@@H](n2sc3ccccc3c2=O)[C@@H]1O [Compound 30]	14.1 µM
CC1(C)Oc2ccc(C#N)cc2[C@@H](Nc2nc3cc(Cl)ccc3o2)[C@@H]1O (racemic) [Compound 2, 4-(5-Chloro-benzooxazol-2-ylamino)-3-hydroxy-2,2-dimethyl-chroman-6-carbonitrile]	16.5 µM
CC1(C)Oc2ccc(C#N)cc2[C@@H](S(=O)(=O)c2nc3cc(Cl)c(F)cc3[nH]2)[C@@H]1O [Compound 72, 4R-(5-Chloro-6-fluoro-1H-benzoimidazole-2-sulfonyl)-3S-hydroxy-2,2-dimethyl-chroman-6-carbonitrile]	20.2 µM
CC1(C)Oc2ccc(Cl)cc2C(OC(=O)c2cccc(Cl)c2)C1O (racemic) [Compound 3]	26.3 µM
CC1(C)Oc2ccc(C#N)cc2[C@@H](Oc2noc3ccc(Cl)cc23)[C@@H]1O [Compound 38, (3S,4R)-4-(5-Chloro-benzo[d]isoxazol-3-yloxy)-3-hydroxy-2,2-dimethyl-chroman-6-carbonitrile]	7.07 µM
CC1(C)Oc2ccc(C#N)cc2[C@@H](Nc2noc3ccc(Cl)cc23)[C@@H]1O [Compound 39, (3S,4R)-4-(5-Chloro-benzo[d]isoxazol-3-ylamino)-3-hydroxy-2,2-dimethyl-chroman-6-carbonitrile]	0.61 µM
